Test [1] concerns the target T1, Tyrosine-protein phosphatase non-receptor type 11 (Homo sapiens, UniProt Q06124).
T1 sequence (Q06124 whole entry): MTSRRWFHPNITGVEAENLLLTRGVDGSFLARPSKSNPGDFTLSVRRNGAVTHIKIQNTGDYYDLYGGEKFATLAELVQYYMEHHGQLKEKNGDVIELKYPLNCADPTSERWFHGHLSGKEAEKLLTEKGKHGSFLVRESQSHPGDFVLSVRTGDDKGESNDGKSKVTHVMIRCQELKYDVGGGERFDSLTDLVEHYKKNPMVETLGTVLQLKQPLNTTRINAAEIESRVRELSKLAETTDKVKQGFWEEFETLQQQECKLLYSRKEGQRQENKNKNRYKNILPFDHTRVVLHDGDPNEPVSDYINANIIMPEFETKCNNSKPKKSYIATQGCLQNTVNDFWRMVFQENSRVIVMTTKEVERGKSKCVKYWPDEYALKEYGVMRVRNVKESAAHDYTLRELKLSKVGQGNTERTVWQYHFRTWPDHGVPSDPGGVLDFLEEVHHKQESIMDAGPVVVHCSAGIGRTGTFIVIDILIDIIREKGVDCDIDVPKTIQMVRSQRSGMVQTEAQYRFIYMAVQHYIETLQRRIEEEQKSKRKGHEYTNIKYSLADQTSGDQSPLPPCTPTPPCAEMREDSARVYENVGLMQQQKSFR
Kind of test: Inhibition of SHP2 (unknown origin).

In test [2] the target is Tyrosine-protein phosphatase non-receptor type 6 (Homo sapiens, UniProt P29350). The experiment in a line: Inhibition of SHP1 (unknown origin).
Chain of Tyrosine-protein phosphatase non-receptor type 6 (P29350 whole entry): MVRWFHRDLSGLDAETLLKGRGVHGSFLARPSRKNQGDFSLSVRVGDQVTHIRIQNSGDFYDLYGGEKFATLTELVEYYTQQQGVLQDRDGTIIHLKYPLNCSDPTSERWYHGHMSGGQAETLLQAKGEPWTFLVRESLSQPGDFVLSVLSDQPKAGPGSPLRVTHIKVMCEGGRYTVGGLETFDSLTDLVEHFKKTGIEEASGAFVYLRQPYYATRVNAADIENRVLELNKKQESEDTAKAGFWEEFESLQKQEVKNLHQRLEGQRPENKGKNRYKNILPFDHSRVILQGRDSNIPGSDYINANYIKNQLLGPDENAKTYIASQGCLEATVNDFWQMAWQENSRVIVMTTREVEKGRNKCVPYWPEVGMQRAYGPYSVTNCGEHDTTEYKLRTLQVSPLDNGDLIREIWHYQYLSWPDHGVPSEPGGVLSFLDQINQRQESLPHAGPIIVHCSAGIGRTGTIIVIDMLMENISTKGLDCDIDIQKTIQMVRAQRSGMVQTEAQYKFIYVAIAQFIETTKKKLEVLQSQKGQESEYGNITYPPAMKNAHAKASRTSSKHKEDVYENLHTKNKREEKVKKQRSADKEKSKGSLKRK
In test [3] the target is T2, Tyrosine-protein phosphatase non-receptor type 2 (Homo sapiens, UniProt P17706).
T2 sequence (P17706 whole entry): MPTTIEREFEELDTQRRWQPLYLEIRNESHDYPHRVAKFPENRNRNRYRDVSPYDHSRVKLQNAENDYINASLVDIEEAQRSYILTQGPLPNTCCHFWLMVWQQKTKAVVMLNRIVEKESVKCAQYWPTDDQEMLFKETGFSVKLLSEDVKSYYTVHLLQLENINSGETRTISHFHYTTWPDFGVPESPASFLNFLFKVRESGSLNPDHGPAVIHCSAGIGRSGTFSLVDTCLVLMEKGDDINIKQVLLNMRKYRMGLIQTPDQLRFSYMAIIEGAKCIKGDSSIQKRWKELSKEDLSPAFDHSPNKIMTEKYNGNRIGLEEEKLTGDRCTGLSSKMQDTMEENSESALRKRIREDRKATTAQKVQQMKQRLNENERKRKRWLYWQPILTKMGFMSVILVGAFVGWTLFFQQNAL
Kind of test: Inhibition of TCPTP (unknown origin).

For test [4], the target named is T3, Tyrosine-protein phosphatase non-receptor type 1 (Homo sapiens, UniProt P18031).
T3 sequence (P18031 whole entry): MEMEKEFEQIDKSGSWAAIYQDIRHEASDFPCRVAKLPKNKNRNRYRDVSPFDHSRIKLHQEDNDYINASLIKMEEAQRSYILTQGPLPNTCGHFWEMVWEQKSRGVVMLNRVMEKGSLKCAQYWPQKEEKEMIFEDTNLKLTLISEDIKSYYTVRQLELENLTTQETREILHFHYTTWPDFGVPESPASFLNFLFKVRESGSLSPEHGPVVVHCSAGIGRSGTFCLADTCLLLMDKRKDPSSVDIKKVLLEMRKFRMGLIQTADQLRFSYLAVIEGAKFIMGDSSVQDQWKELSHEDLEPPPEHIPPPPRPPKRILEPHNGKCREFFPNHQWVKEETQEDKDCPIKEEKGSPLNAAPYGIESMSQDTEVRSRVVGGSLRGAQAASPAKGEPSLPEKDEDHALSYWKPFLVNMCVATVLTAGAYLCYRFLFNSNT
The experiment in a line: Inhibition of PTP1B (unknown origin).

Test [5] deals with Receptor-type tyrosine-protein phosphatase F (Homo sapiens, UniProt P10586). Kind of test: Inhibition of LAR (unknown origin).
Chain of Receptor-type tyrosine-protein phosphatase F (P10586 whole entry): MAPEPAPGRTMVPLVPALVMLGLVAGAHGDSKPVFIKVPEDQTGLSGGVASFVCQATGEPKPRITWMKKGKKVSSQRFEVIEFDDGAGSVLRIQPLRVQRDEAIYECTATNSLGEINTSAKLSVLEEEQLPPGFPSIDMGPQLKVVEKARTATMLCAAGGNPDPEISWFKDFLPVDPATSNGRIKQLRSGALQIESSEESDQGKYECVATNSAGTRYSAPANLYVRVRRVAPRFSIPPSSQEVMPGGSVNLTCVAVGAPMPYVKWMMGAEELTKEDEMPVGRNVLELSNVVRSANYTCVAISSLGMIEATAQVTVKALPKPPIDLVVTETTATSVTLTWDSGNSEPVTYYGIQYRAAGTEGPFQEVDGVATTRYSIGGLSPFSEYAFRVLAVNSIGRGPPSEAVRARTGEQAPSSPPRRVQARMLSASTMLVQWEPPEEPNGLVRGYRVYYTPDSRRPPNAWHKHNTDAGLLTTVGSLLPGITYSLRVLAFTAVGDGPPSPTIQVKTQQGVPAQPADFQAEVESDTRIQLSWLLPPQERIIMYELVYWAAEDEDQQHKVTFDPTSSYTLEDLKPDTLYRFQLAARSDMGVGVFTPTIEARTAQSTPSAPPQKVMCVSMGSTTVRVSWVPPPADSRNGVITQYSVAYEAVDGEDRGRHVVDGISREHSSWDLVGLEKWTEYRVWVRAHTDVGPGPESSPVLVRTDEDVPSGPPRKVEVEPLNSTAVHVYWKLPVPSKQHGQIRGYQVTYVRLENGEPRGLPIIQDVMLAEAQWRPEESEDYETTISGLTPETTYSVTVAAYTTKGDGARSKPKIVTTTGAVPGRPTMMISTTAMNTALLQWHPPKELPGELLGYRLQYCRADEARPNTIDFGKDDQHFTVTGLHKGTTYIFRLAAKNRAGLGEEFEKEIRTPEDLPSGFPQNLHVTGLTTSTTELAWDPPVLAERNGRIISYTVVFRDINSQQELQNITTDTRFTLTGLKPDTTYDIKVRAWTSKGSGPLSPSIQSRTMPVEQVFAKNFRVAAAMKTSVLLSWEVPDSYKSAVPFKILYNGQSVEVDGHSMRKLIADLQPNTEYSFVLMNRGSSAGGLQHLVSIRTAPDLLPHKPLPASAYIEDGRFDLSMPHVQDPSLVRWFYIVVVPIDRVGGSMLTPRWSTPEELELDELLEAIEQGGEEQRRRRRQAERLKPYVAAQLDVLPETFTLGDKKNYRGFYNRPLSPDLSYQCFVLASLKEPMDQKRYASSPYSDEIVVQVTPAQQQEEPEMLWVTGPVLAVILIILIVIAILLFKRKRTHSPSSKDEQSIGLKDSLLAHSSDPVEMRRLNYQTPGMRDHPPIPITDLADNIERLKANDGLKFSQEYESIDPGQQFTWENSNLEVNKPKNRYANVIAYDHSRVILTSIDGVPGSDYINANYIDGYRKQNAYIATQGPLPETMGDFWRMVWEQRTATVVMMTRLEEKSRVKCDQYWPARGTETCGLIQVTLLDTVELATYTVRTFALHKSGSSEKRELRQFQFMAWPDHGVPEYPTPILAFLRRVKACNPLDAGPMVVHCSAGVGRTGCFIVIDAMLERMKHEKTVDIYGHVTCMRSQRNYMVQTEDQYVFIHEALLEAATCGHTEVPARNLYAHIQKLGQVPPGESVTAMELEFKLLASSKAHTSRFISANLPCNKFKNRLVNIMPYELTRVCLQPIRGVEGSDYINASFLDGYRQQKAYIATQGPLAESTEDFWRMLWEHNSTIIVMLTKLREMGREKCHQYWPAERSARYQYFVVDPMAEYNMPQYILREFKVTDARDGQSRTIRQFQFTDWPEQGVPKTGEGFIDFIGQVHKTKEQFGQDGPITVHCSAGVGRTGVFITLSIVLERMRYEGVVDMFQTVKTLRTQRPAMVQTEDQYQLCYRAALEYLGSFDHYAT

`O=C(OC1CSSC1)c1ccccc1I`: the IC50 result in test [1] was “Not Active”; in test [2] it was “Not Active”; in test [3] (read-out: IC50) it was 42.1 µM; in test [4] (read-out: IC50) it was 48.2 µM; in test [5] (read-out: IC50) it was 20.4 µM.
Turning to `O=C(OC1CS[S+]([O-])C1)c1ccccc1I` (configuration not stated), the IC50 entry is “Not Active” in test [1]; “Not Active” in test [2]; 36.8 µM in test [3] (read-out: IC50); 29.7 µM in test [4] (read-out: IC50); “Not Active” in test [5].
As to `O=S1(=O)C[C@H](O)CS1` [BRUGUIESULFUROL], the IC50 in test [4] (read-out: IC50) amounted to 17.5 µM.
In the case of `O=C(CCc1ccc(Br)cc1)OC1CSSC1`, the IC50 result in test [4] is “Not Active”.
With `O=C(OC1CSSC1)c1ccco1`, the IC50 is 22.3 µM in test [1] (read-out: IC50); 15.8 µM in test [2] (read-out: IC50); 75.4 µM in test [3] (read-out: IC50); 35.2 µM in test [4] (read-out: IC50); “Not Active” in test [5].
Regarding `O=C(Cc1ccc(Br)cc1)OC1CS[S+]([O-])C1` (configuration not stated), the half-maximal inhibitory concentration (IC50) result was “Not Active” in test [1]; “Not Active” in test [2]; “Not Active” in test [3]; 45 µM in test [4] (read-out: IC50); “Not Active” in test [5].
For the molecule `O=C(OC1CSSC1)c1cc([N+](=O)[O-])cc([N+](=O)[O-])c1`, the IC50 in test [1] (read-out: IC50) is 13.8 µM; in test [2] (read-out: IC50) it was 24.4 µM; in test [3] (read-out: IC50), 27.3 µM; in test [4] (read-out: IC50) it was 14.8 µM; in test [5], “Not Active”.
In the case of `O=C(OC1CSSC1)c1ccc(Br)cc1`, the IC50 result in test [1] was “Not Active”; in test [2] it was “Not Active”; in test [3] (read-out: IC50), 34 µM; in test [4] (read-out: IC50), 11 µM; in test [5] (read-out: IC50), 34.6 µM.
With `O=C(OC1CSSC1)c1ccc(F)cc1`, the IC50 entry in test [4] is on record as “Not Active”.
As for `O=C(OC1CSS(=O)(=O)C1)c1ccccc1I` (configuration not stated), the IC50 entry in test [4] is reported as “Not Active”.
With `O=C(OC1CSS(=O)(=O)C1)c1ccc(Br)cc1` (configuration not stated), the IC50 entry in test [4] is reported as “Not Active”.
Consider `O=C(OC1CSS(=O)(=O)C1)c1cccc(Br)c1` (configuration not stated), for which the IC50 entry in test [1] is “Not Active”; in test [2], “Not Active”; in test [3] it was “Not Active”; in test [4] (read-out: IC50) it was 29 µM; in test [5], “Not Active”.
On to `O=C(OC1CS[S+]([O-])C1)c1cc2ccccc2[nH]1` (configuration not stated), for which the IC50 result in test [1] was “Not Active”; in test [2] it was “Not Active”; in test [3] (read-out: IC50) it was 52.6 µM; in test [4] (read-out: IC50), 31.4 µM; in test [5], “Not Active”.
For the molecule `O=C(OC1CS[S+]([O-])C1)c1ccc(I)cc1` (configuration not stated), the IC50 result was “Not Active” in test [1]; “Not Active” in test [2]; 33 µM in test [3] (read-out: IC50); 22.4 µM in test [4] (read-out: IC50); “Not Active” in test [5].
Take `NS(=O)(=O)c1ccc(C(=O)OC2CSSC2)cc1`: the IC50 in test [1] (read-out: IC50) was 13.4 µM; in test [2] (read-out: IC50), 14 µM; in test [3] (read-out: IC50), 40.7 µM; in test [4] (read-out: IC50), 24.9 µM; in test [5], “Not Active”.
As for `O=C(OC1CSSC1)c1cc(Br)ccc1Br`, the IC50 result in test [1] was “Not Active”; in test [2] (read-out: IC50), 10.9 µM; in test [3] (read-out: IC50), 20.4 µM; in test [4] (read-out: IC50), 25.6 µM; in test [5], “Not Active”.
`O=C(OC1CSSC1)c1cc2ccccc2[nH]1`: the IC50 entry was “Not Active” in test [1]; “Not Active” in test [2]; 35.8 µM in test [3] (read-out: IC50); 24.1 µM in test [4] (read-out: IC50); “Not Active” in test [5].
For the molecule `O=C(OC1CSSC1)c1ccc[nH]1`, the IC50 result in test [4] was “Not Active”.
With `O=C(OC1CSSC1)c1ccoc1`, the IC50 in test [1] (read-out: IC50) is 21.4 µM; in test [2] (read-out: IC50), 17.9 µM; in test [3], “Not Active”; in test [4] (read-out: IC50), 78.2 µM; in test [5], “Not Active”.
Regarding `O=C(OC1CS[S+]([O-])C1)c1cccc(Br)c1` (configuration not stated), the IC50 entry in test [1] was “Not Active”; in test [2], “Not Active”; in test [3] it was “Not Active”; in test [4] (read-out: IC50), 28 µM; in test [5] it was “Not Active”.
On to `O=C(OC1CSS(=O)(=O)C1)c1ccc(I)cc1` (configuration not stated), for which the IC50 result in test [4] is “Not Active”.
As for `O=C(OC1CSS(=O)(=O)C1)c1ccc(F)cc1` (configuration not stated), the IC50 result in test [4] is listed as “Not Active”.
On to `O=C(OC1CSSC1)c1ccccc1Br`, for which the IC50 result in test [4] is on record as “Not Active”.
Still for that read-out and setting: the entry for `O=C(OC1CS[S+]([O-])C1)c1ccc(Br)cc1` (configuration not stated) is “Not Active”.
On to `O=C(OC1CSS(=O)(=O)C1)c1cc(Br)ccc1Br` (configuration not stated), for which the IC50 result in test [4] is given as “Not Active”.
For `COc1ccc(C(=O)OC2CSSC2)c(OC)c1`, the IC50 result in test [4] is reported as “Not Active”.
Same read-out and setting: the entry for `CC(=O)OC1CSSC1` is “Not Active”.
Still for that read-out and setting: the value for `O=C(OC1CSSC1)c1ccc(Cl)cc1` was “Not Active”; that for `O=C(OC1CSSC1)c1ccccc1` was “Not Active”.
As for `O=C(OC1CS[S+]([O-])C1)c1cc(Br)ccc1Br` (configuration not stated), the IC50 entry in test [1] was “Not Active”; in test [2], “Not Active”; in test [3] (read-out: IC50) it was 11.1 µM; in test [4] (read-out: IC50) it was 4.54 µM; in test [5] it was “Not Active”.
For `O=C(OC1CSSC1)c1cccc(Br)c1`, the IC50 result in test [4] is “Not Active”.
Take `O=C(OC1CSSC1)c1ccc([N+](=O)[O-])cc1`: the IC50 entry in test [1] is “Not Active”; in test [2], “Not Active”; in test [3] (read-out: IC50) it was 37.4 µM; in test [4] (read-out: IC50) it was 22.6 µM; in test [5] it was “Not Active”.
Regarding `O=C(OC1CS[S+]([O-])C1)c1ccccc1Br` (configuration not stated), in test [4], the concentration for half-maximal inhibition (IC50) result is listed as “Not Active”.
Regarding `O=C(Cc1ccc(Br)cc1)OC1CSSC1`, in test [4], the IC50 entry is recorded as “Not Active”.
Still for that read-out and setting: the entry for `O=C(Cc1ccc(Br)cc1)OC1CSS(=O)(=O)C1` (configuration not stated) is “Not Active”.
`O=C(OC1CSS(=O)(=O)C1)c1cc2ccccc2[nH]1` (configuration not stated): in test [4], the IC50 entry is on record as “Not Active”.
Take `O=C(OC1CS[S+]([O-])C1)c1ccc(F)cc1` (configuration not stated): the IC50 result in test [4] is “Not Active”.
On to `O=C(OC1CSSC1)c1ccc(I)cc1`, for which the IC50 result in test [1] is “Not Active”; in test [2] it was “Not Active”; in test [3] (read-out: IC50), 34.1 µM; in test [4] (read-out: IC50), 33.4 µM; in test [5] it was “Not Active”.
On to `O=C(OC1CSS(=O)(=O)C1)c1ccccc1Br` (configuration not stated), for which the IC50 entry in test [4] is “Not Active”.

What is called IC50 is the point on the concentration scale where inhibition reaches its midpoint.

These data come from ChEMBL document CHEMBL2417434, “The first synthesis of natural disulfide bruguiesulfurol and biological evaluation of its derivatives as a novel scaffold for PTP1B inhibitors” (Bioorg Med Chem Lett, 2013).
